The record followed here is patent US20060079453A1, “Hla binding peptides and their uses” (priority 2002, published 2006).

Some targets named below: HLA-DR DRB1*0701 (DR7) (Homo sapiens, UniProt P01903+P01911, A100R/A102G/A103Q/D57E/D86V/E43K/F76Y/K127E/L162R/M171V/P40G/Q125H/Q99D/R33Q/R42Y/R54Q/S133A/S66F/T210M/V115G/Y107V/Y59L/Y89S); HLA-DR DRB1*0802 (DR8) (Homo sapiens, UniProt P01903+P01911, A100R/A103L/A169T/F76Y/H45Y/I96F/K41T/L162R/M171V/P40S/Q125H/Q178H/Q39Y/Q99D/R218S/R42G/S66Y/V115G/W38E); HLA-DR DRB1*0401 (DR4) (Homo sapiens, UniProt P01903+P01911, A100K/A169T/F76Y/I96L/K127E/L162R/M171V/N62H/P40V/Q125Y/R42H/S133A/S149N/S66Y/V115G/V209L/W38E); HLA-DR DRB1*0101 (DR1) (Homo sapiens, UniProt P01903+P01911, A100R/D57E/F55L/F60I/F76Y/I96L/L162R/M171V/P40L/Q125E/R42F/V115G/Y59C).

Common to all, as to test: biochemical
Assay type in all cases: binding

The target of a further experiment is HLA-DR DRB5*0101 (DR51) (Homo sapiens, UniProt P01903+Q30154). Conditions: DRB5 *0101.
The target of another experiment is HLA-DR DRB1*1501 (DR15) (Homo sapiens, UniProt P01903+P01911). Conditions: DRBI *1501.
The next experiment deals with HLA-DR DRB4*0101 (DR53) (Homo sapiens, UniProt P01903+P13762, G164S). Conditions: DRB4 *0101.
The next experiment concerns the target HLA-DR DRB1*1302 (DR13) (Homo sapiens, UniProt P01903+P01911, A100E/A169T/K41T/L162R/M171V/P40S/Q125H/Q178H/Q39Y/Q99D/R42S/S66N/T262R/V115G/W38E/Y61H). Conditions: DRBI *1302.
The target of another experiment is HLA-DR DRB1*0301 (DR3) (Homo sapiens, UniProt P01903+P01911, A100K/A102G/A103R/A169T/F55Y/I96L/K41T/L162R/M171V/P40S/Q125H/Q178H/Q39Y/R42S/S66N/T106N/T262R/W38E/Y61H). Conditions: read-out: DRB1 *0301.

Where two headings read alike, the source gives them in different places. No end group written: not given here.

Sequence of HLA-DR DRB1*1302 (DR13) (P01903 26-254 limits assumed, other chains not shown): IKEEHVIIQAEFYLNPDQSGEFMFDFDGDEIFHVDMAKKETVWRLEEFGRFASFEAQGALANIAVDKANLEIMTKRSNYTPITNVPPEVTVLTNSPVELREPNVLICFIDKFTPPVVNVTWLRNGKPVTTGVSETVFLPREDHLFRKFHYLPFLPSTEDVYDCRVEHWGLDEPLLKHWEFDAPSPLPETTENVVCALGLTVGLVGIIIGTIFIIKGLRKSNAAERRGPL
Sequence of HLA-DR DRB1*0301 (DR3) (P01903 26-254 limits assumed, other chains not shown): as above

On to SMEYKKDFLITARKP, for which the IC50 on HLA-DR DRB1*0701 (DR7) (read-out: DRB1 *0701) came to 776 nM; on HLA-DR DRB1*0802 (DR8) (read-out: DRB1 *0802), 8900 nM; at HLA-DR DRB1*0401 (DR4) (read-out: DRB1 *0401), 24 nM.

Consider YGIIVPVLTSLFNKV, for which the IC50 at HLA-DR DRB1*0701 (DR7) (read-out: DRB1 *0701) is 60 nM; at HLA-DR DRB1*0101 (DR1) (read-out: DRB1 *0101), 6 nM; on HLA-DR DRB1*0802 (DR8) (read-out: DRB1 *0802) it was 793 nM; on HLA-DR DRB1*0401 (DR4) (read-out: DRB1 *0401), 2 nM.

For LKELIKVGLPSFENL, the IC50 came out at 542 nM against HLA-DR DRB1*0701 (DR7) (DRB1 *0701); 99 nM on HLA-DR DRB1*0101 (DR1) (DRB1 *0101); 41300 nM on HLA-DR DRB5*0101 (DR51); 361 nM against HLA-DR DRB1*1501 (DR15); 1490 nM against HLA-DR DRB1*0802 (DR8); 110 nM on HLA-DR DRB4*0101 (DR53). This sequence came in with an IC50 against HLA-DR DRB1*0401 (DR4) (DRB1 *0401) of 163 nM.

As for YEALIKLLPFSKRIR, the IC50 worked out at 3580 nM against HLA-DR DRB1*0701 (DR7) (DRB1 *0701); 55 nM against HLA-DR DRB1*0101 (DR1) (DRB1 *0101); 11 nM against HLA-DR DRB5*0101 (DR51); 230 nM at HLA-DR DRB1*1302 (DR13); 36 nM on HLA-DR DRB1*1501 (DR15); 180 nM at HLA-DR DRB1*0802 (DR8). Also, the IC50 at HLA-DR DRB4*0101 (DR53) came out at 15 nM; at HLA-DR DRB1*0401 (DR4) (DRB1 *0401), 1840 nM.

Turning to VLFLQMMNVNLQKQL, the IC50 is 8440 nM against HLA-DR DRB1*0701 (DR7) (DRB1 *0701); 6.3 nM at HLA-DR DRB1*0101 (DR1) (DRB1 *0101); greater than 7210 nM on HLA-DR DRB5*0101 (DR51); 8.6 nM at HLA-DR DRB1*1302 (DR13); 8200 nM on HLA-DR DRB1*1501 (DR15); 56800 nM on HLA-DR DRB1*0802 (DR8). In addition, the IC50 stood at 12 nM at HLA-DR DRB4*0101 (DR53) and 30 nM at HLA-DR DRB1*0401 (DR4) (DRB1 *0401).

For TAWTIVRVEILRYFY, the IC50 at HLA-DR DRB1*0701 (DR7) (read-out: DRB1 *0701) stood at 29 nM; at HLA-DR DRB1*0101 (DR1) (read-out: DRB1 *0101), 7.8 nM; at HLA-DR DRB1*0802 (DR8) (read-out: DRB1 *0802) it was 57200 nM; on HLA-DR DRB1*0301 (DR3), 3000 nM; at HLA-DR DRB1*0401 (DR4) (read-out: DRB1 *0401), 44 nM.

Turning to SKIMKLPKLPISNGK, the IC50 against HLA-DR DRB1*0701 (DR7) (DRB1 *0701) amounted to 83700 nM; against HLA-DR DRB1*0101 (DR1) (DRB1 *0101), 824 nM; on HLA-DR DRB1*0802 (DR8), 110 nM; against HLA-DR DRB1*0401 (DR4) (DRB1 *0401) it was 6480 nM.

On to MNALRRLPVICSFLV, for which the IC50 is 2.1 nM at HLA-DR DRB1*0101 (DR1) (DRB1 *0101); 2560 nM against HLA-DR DRB5*0101 (DR51); 36 nM against HLA-DR DRB1*1501 (DR15); 265 nM against HLA-DR DRB1*0802 (DR8); 5.7 nM at HLA-DR DRB4*0101 (DR53); 13 nM against HLA-DR DRB1*0401 (DR4) (DRB1 *0401).

For the sequence NVNLQKQLLTNHLIN [NVNLQKQLLTNHLIN], the IC50 at HLA-DR DRB1*0701 (DR7) (DRB1 *0701) was 555 nM; at HLA-DR DRB1*0101 (DR1) (DRB1 *0101) it was 96 nM; at HLA-DR DRB5*0101 (DR51) it was greater than 7210 nM; on HLA-DR DRB1*1501 (DR15), 4450 nM; on HLA-DR DRB1*0802 (DR8) it was 11200 nM; against HLA-DR DRB4*0101 (DR53), 354 nM. This sequence returned an IC50 against HLA-DR DRB1*0401 (DR4) (DRB1 *0401) of 2460 nM.

For LCNFKKNIIALLIIP, the figures for the IC50 on HLA-DR DRB1*0101 (DR1) (read-out: DRB1 *0101), at HLA-DR DRB1*0802 (DR8) (read-out: DRB1 *0802) and at HLA-DR DRB1*0401 (DR4) (read-out: DRB1 *0401) were 9.7 nM, 21300 nM and 312 nM, respectively.

With KCLVISQVSNSDSYK, the IC50 at HLA-DR DRB1*0701 (DR7) (DRB1 *0701) was 46400 nM; against HLA-DR DRB1*0101 (DR1) (DRB1 *0101), 628 nM; on HLA-DR DRB5*0101 (DR51), greater than 42600 nM; against HLA-DR DRB1*1302 (DR13), 236 nM; at HLA-DR DRB1*0802 (DR8) it was 17900 nM; at HLA-DR DRB4*0101 (DR53), 81 nM. This sequence also yielded an IC50 on HLA-DR DRB1*0401 (DR4) (DRB1 *0401) of 16 nM.

For the sequence NYELSKKAVIFTPIY, the IC50 against HLA-DR DRB1*0701 (DR7) (DRB1 *0701) stood at 5500 nM; on HLA-DR DRB1*0101 (DR1) (DRB1 *0101), 713 nM; on HLA-DR DRB1*0802 (DR8), 141 nM; at HLA-DR DRB1*0401 (DR4) (DRB1 *0401) it was 536 nM.

Consider MIMIKFMGVIYIMII, for which the IC50 amounted to 68000 nM at HLA-DR DRB1*0701 (DR7) (DRB1 *0701), 2900 nM on HLA-DR DRB1*0101 (DR1) (DRB1 *0101), 66100 nM on HLA-DR DRB1*0802 (DR8) and 312 nM against HLA-DR DRB1*0401 (DR4) (DRB1 *0401).

As to GVIYIMIISKKMMRK, the IC50 is 10 nM at HLA-DR DRB1*0101 (DR1) (DRB1 *0101); 46 nM against HLA-DR DRB5*0101 (DR51); 173 nM against HLA-DR DRB1*1501 (DR15); 137 nM on HLA-DR DRB1*0802 (DR8); 157 nM against HLA-DR DRB4*0101 (DR53); 22 nM at HLA-DR DRB1*0401 (DR4) (DRB1 *0401).

In the case of AVGLPSTPVHPIGYY, the IC50 turned out to be 3.6 nM on HLA-DR DRB1*0101 (DR1) (read-out: DRB1 *0101), 4430 nM on HLA-DR DRB1*0802 (DR8) (read-out: DRB1 *0802) and 4190 nM on HLA-DR DRB1*0401 (DR4) (read-out: DRB1 *0401).
